Reference: the CheMixHub viscosity set

Test: xn = mol fraction of the nth substance listed

C=Cc1ccccc1 + CCCCCCCCC
viscosity [mPa·s], 101.33 kPa
Details | x1 = 0.0999 | x1 = 0.2002 | x1 = 0.2986 | x1 = 0.3964 | x1 = 0.4953 | x1 = 0.5967 | x1 = 0.6984 | x1 = 0.7933 | x1 = 0.8971
298.15 K | 0.638 | 0.626 | 0.618 | 0.613 | 0.614 | 0.616 | 0.628 | 0.642 | 0.669
303.15 K | 0.606 | 0.588 | 0.582 | 0.577 | 0.579 | 0.581 | 0.593 | 0.606 | 0.628
308.15 K | 0.564 | 0.551 | 0.547 | 0.544 | 0.544 | 0.547 | 0.558 | 0.57 | 0.591

CC12CC3CC(C1)CC(C)(C3)C2 + CCCCCCCCC
viscosity [mPa·s], 100 kPa
Details | x1 = 0.1004 | x1 = 0.2014 | x1 = 0.3 | x1 = 0.4003 | x1 = 0.5004 | x1 = 0.6001 | x1 = 0.7005 | x1 = 0.7994 | x1 = 0.8997
293.15 K | 0.802 | 0.912 | 1.033 | 1.203 | 1.39 | 1.647 | 1.986 | 2.44 | 2.984
298.15 K | 0.748 | 0.848 | 0.958 | 1.111 | 1.279 | 1.501 | 1.8 | 2.183 | 2.68
303.15 K | 0.699 | 0.791 | 0.891 | 1.028 | 1.182 | 1.377 | 1.635 | 1.992 | 2.419
308.15 K | 0.656 | 0.74 | 0.831 | 0.956 | 1.093 | 1.267 | 1.509 | 1.816 | 2.196
313.15 K | 0.617 | 0.694 | 0.777 | 0.891 | 1.018 | 1.18 | 1.399 | 1.661 | 2
318.15 K | 0.582 | 0.652 | 0.728 | 0.833 | 0.947 | 1.09 | 1.282 | 1.527 | 1.829
323.15 K | 0.55 | 0.615 | 0.685 | 0.78 | 0.885 | 1.018 | 1.193 | 1.411 | 1.68

C=Cc1ccccc1 + CCCCCCCCCC
viscosity [mPa·s], 101.33 kPa
Details | x1 = 0.1007 | x1 = 0.2052 | x1 = 0.2991 | x1 = 0.4114 | x1 = 0.4959 | x1 = 0.6135 | x1 = 0.6992 | x1 = 0.8062 | x1 = 0.8984
298.15 K | 0.803 | 0.773 | 0.75 | 0.724 | 0.706 | 0.688 | 0.68 | 0.677 | 0.693
303.15 K | 0.749 | 0.722 | 0.702 | 0.678 | 0.663 | 0.646 | 0.638 | 0.633 | 0.644
308.15 K | 0.7 | 0.678 | 0.658 | 0.638 | 0.624 | 0.607 | 0.602 | 0.6 | 0.611

CC12CC3CC(C1)CC(C)(C3)C2 + CCCCCCCCCC
viscosity [mPa·s], 100 kPa
Details | x1 = 0.1028 | x1 = 0.1981 | x1 = 0.3019 | x1 = 0.3998 | x1 = 0.4996 | x1 = 0.6018 | x1 = 0.6968 | x1 = 0.7904 | x1 = 0.895
293.15 K | 1.016 | 1.12 | 1.253 | 1.402 | 1.581 | 1.828 | 2.125 | 2.491 | 3.031
298.15 K | 0.942 | 1.035 | 1.154 | 1.287 | 1.445 | 1.665 | 1.926 | 2.247 | 2.719
303.15 K | 0.877 | 0.961 | 1.069 | 1.187 | 1.328 | 1.526 | 1.757 | 2.04 | 2.456
313.15 K | 0.767 | 0.837 | 0.926 | 1.023 | 1.137 | 1.295 | 1.48 | 1.704 | 2.032
323.15 K | 0.672 | 0.729 | 0.797 | 0.879 | 0.972 | 1.098 | 1.237 | 1.421 | 1.676

CC12CC3CC(C1)CC(C)(C3)C2 + CCCCCCCCCCC
viscosity [mPa·s], 100 kPa
Details | x1 = 0.1005 | x1 = 0.2002 | x1 = 0.2999 | x1 = 0.4004 | x1 = 0.4999 | x1 = 0.5996 | x1 = 0.7003 | x1 = 0.8 | x1 = 0.8999
293.15 K | 1.278 | 1.376 | 1.491 | 1.628 | 1.805 | 2.024 | 2.319 | 2.683 | 3.141
298.15 K | 1.173 | 1.273 | 1.385 | 1.492 | 1.639 | 1.831 | 2.087 | 2.418 | 2.813
303.15 K | 1.083 | 1.162 | 1.25 | 1.37 | 1.501 | 1.676 | 1.901 | 2.19 | 2.531
308.15 K | 1.003 | 1.071 | 1.153 | 1.259 | 1.376 | 1.53 | 1.735 | 1.98 | 2.299
313.15 K | 0.936 | 0.998 | 1.074 | 1.166 | 1.272 | 1.409 | 1.589 | 1.817 | 2.083
318.15 K | 0.872 | 0.939 | 1.006 | 1.084 | 1.172 | 1.297 | 1.461 | 1.665 | 1.911
323.15 K | 0.815 | 0.871 | 0.94 | 1.008 | 1.097 | 1.207 | 1.348 | 1.532 | 1.744

CCCCCCCCO + CCCCCCCCCCCC
298.15 K, 101 kPa
Details | viscosity [mPa·s]
x2 = 0.0554 | 6.58
x2 = 0.0999 | 6
x2 = 0.1554 | 5.3
x2 = 0.1998 | 4.78
x2 = 0.2555 | 4.16
x2 = 0.2998 | 3.71
x2 = 0.3554 | 3.19
x2 = 0.3998 | 2.81
x2 = 0.4554 | 2.39
x2 = 0.4999 | 2.1
x2 = 0.5555 | 1.78
x2 = 0.5998 | 1.57
x2 = 0.6555 | 1.35
x2 = 0.6998 | 1.22
x2 = 0.7554 | 1.1
x2 = 0.7998 | 1.04
x2 = 0.8555 | 1
x2 = 0.8999 | 1
x2 = 0.9555 | 1.04
